Here are results for 1 molecule from patent publication US7038111B2, “Method for increasing stress tolerance in plants” (The Arizona Board of Regents, priority 2001, dated 2006).

Holding throughout (type): in vivo, Arabidopsis thaliana
The test system of one assay is LOS5/ABA3 gene. The experiment in a line: RNA blot analysis of LOS5/ABA3 transcript level. As to conditions: wild type seedlings, 100 μM ABA for 4 hr. Here is the method: […] For NaCl or PEG treatment, seedlings on MS plates were transferred to filter paper saturated with MS solution supplemented with 300 mM NaCl or 30% of polyethylene glycol (molecular weight 6,000) and incubated for 5 hr. Unless otherwise stated, cold treatment for image analysis and RNA analysis were done by incubating seedlings growing in plates at 0° C. in the dark for 48 hr (for imaging) or 12 hr (for RNA analysis). Because longer treatment at −5 or −10° C. will result in freezing of the agar media, these freezing temperature treatments only lasted for 3 hr. After the treatment, the plates were placed at room temperature for 2 hr to thaw before luminescence images acquisition. For ABA plus NaCl treatment, seedlings were transferred onto a filter paper saturated with 300 mM NaCl in MS solution and sprayed immediately with 100 μM ABA. The plants were then incubated under cool-white light for 4 hr before luciferase imaging. For low temperature plus ABA treatment, seedlings on agar plates were briefly incubated at 0±1° C. for 10 min and then sprayed with 100 μM ABA and incubated in the dark at 0±1° C. for 48 hr before image analysis.
Ten-day-old seedlings on MS agar plates were treated were treated with cold, ABA, NaCl, or PEG as described in the above section. […] Total RNA from control or treated plants was extracted and analyzed as described (Ishitani et al., 1998). […]

A further assay concerns RD29A-LUC. The assay is described as follows: RD29A-LUC luminescence expression in seedlings, ABA given together with salt or cold stress. The procedure: Arabidopsis thaliana (C24 ecotype) expressing the RD29A-LUC transgene (referred to as the wild type) were obtained by Agrobacterium-mediated transformation (Ishitani et al., 1997). Seeds of wild type RD29A-LUC were mutagenized by ethyl methanesulfonate (Ishitani et al., 1997). M2 were planted on 0.6% agar plates containing full strength Murashige and Skoog salt base (MS salt base; JRH Biosceicnes, Lenex, Kans.) and were germinated and grown at 22±2° C. under continuous white light. One-week-old seedlings were screened for mutants with altered RD29A-LUC (i.e. luminescence) expression in response to low temperature, ABA, or osmotic stress using a thermoelectrically cooled CCD camera. For luminescence imaging, plants were sprayed with 1 mM luciferin in 0.01% Triton X-100 and then kept in the dark for 5 min before imaging. All images were acquired with a 5 min exposure time. The luminescence intensity of each seedling was quantified with the WinView software.
For ABA treatment, 100 μM (±)-cis, trans-abscisic acid in H2O was sprayed uniformly on leaves of seedlings and the plants were incubated at room temperature under cool-white light for 4 hr (for luminescence imaging) or 3 hr (for RNA analysis). For NaCl or PEG treatment, seedlings on MS plates were transferred to filter paper saturated with MS solution supplemented with 300 mM NaCl or 30% of polyethylene glycol (molecular weight 6,000) and incubated for 5 hr. Unless otherwise stated, cold treatment for image analysis and RNA analysis were done by incubating seedlings growing in plates at 0° C. in the dark for 48 hr (for imaging) or 12 hr (for RNA analysis). Because longer treatment at −5 or −10° C. will result in freezing of the agar media, these freezing temperature treatments only lasted for 3 hr. After the treatment, the plates were placed at room temperature for 2 hr to thaw before luminescence images acquisition. For ABA plus NaCl treatment, seedlings were transferred onto a filter paper saturated with 300 mM NaCl in MS solution and sprayed immediately with 100 μM ABA. […]

Assay [1] concerns Arabidopsis wild type and los5-1 plants. The experiment in a line: Transpirational water loss of detached aerial parts after ABA spray. As to conditions: sprayed with 100 μM ABA 3 hr before detaching aerial parts. Here is the method: To determine whether los5 mutant plants are deficient in ABA or are insensitive to ABA, wild type and los5-1 plants at the rosette stage were sprayed with 100 μM ABA 3 hr before detaching the aerial parts for water loss measurement.
For water loss measurement, plants at the rosette stage were detached from soil surface and weighed immediately in a plastic weighing boat. The boat with the plants was then placed on laboratory bench (relative humidity ˜30%) and weighed at designated time intervals. There were four replicates for each line. Percent loss of fresh weight was calculated based on the initial weight of the plants.

The structures appear in SMILES notation.

For `CC1=CC(=O)CC(C)(C)C1(O)/C=C/C(C)=C\C(=O)O` (racemic) [ABA, (±)-cis, trans-abscisic acid], the “transcript level of LOS5” value in the assay on LOS5/ABA3 gene was “increases significantly”. Further, the RD29A-LUC expression entry is on record as “restored to the wild type level or higher” in the assay on RD29A-LUC (los5 and los6/aba1 seedlings, 100 μM ABA administered simultaneously with 300 mM NaCl, 4 hr); “failed to restore” in the assay on RD29A-LUC (los5 mutant seedlings, 100 μM ABA together with cold, 0° C. for 48 hr). Moreover, the RD29A-LUC luminescence expression entry in the assay with RD29A-LUC (los6/aba1 seedlings, 100 μM ABA together with cold, 0° C. for 48 hr) was “close to the wild type level”. Moreover, the “rate of water loss” value in assay [1] (los5-1 plants at rosette stage) is on record as “reduced substantially”. Further, the transpirational water loss entry in assay [1] (wild type plants at rosette stage) is listed as “did not significantly affect”.
